# Results published in patent US20190300882A1, “METHODS OF TREATING NEUROBLASTOMA AND REAGENTS THEREFOR” (GARVAN INSTITUTE OF MEDICAL RESEARCH, priority 2016, published 2019).
# Experiments:
# Type in all cases: cell-based
# KELLY cells [1] = assay: Primary functional miRNA mimic screen, CellTiter-Glo cell viability; conditions: miRNA mimic 25 nM alone, 144 hours post-transfection
# Excerpt: Breast cancer cell lines (MDA-MB-231, MDA-MB-468, SK-BR-3; BT474) and prostate cancer cell lines (PC3, DU145) were obtained from American Type Culture Collection (ATCC). Neuroblastoma cell lines (KELLY, SHEP) were received from Children's Cancer Institute (CCIA). The KELLY cells were selected as a MYCN amplified neuroblastoma cell line and the SHEP cells were selected as a MYCN wild-type neuroblastoma cell line. All breast and prostate cancer cell lines were cultivated in RPMI media supplemented with 10% FCS, HEPES, and insulin. […] Each of the cell lines were reverse transfected in 384-well plate format with 25 nM of a miRNA from the Dharmacon miRNA mimic or inhibitor libraries (version 16.0) using liquid-handling robot Calliper Sciclone ALH3000 according to the conditions described in Table 3. […] Luminescence measurements were taken on the Synergy H4 high-throughput multimode microplate reader. All screens were performed in duplicates. Raw viability was normalised to a nontargeting control (OTP) or mock wells, and death genes or controls inducing varying levels of death were used to monitor transfection efficiency and to define dynamic range in each screen (FIG. 1). To define screen hits, normalised viability scores were binned in the following manner: CV1 bin included candidates with viability >=0.8; […] Only LC candidates were defined as screen hits.
# [2] = system: SK-N-DZ MYCN-amplified neuroblastoma cell line; assay: Secondary validation screen of lethal miRNAs, additional cell line, cell viability; conditions: miRNA mimic alone
# Experimental: (§1) Each of the cell lines were reverse transfected in 384-well plate format with 25 nM of a miRNA from the Dharmacon miRNA mimic or inhibitor libraries (version 16.0) using liquid-handling robot Calliper Sciclone ALH3000 according to the conditions described in Table 3. After 24 hours, media was changed using BioTek 406, and 144 hours post-transfection, cell viability was determined using CellTiter-Glo luminescent assay (Promega) at 1:2 dilution. Luminescence measurements were taken on the Synergy H4 high-throughput multimode microplate reader. All screens were performed in duplicates.
# (§2) The secondary validation screens were performed in accordance with the genome-wide screens described in Example 1 and Example 2, respectively, with the exception that an additional MYCN-amplified neuroblastoma cell line (SK-N-DZ) was added to each screen.
# (§3) Furthermore, five additional non-active miRNAs discovered to have no measureable effect across all treatment groups of the genome-wide screen (‘non-lethal’ miRNAs) were included as negative controls.
# SHEP cells [3] = assay: Secondary validation screen of lethal miRNAs, cell viability; conditions: miRNA mimic alone
# Experimental: as §1, §2, §3
# KELLY cells [4] = assay: as above; conditions: miRNA mimic alone
# Experimental: as §1, §2, §3
# RBFOX2 mRNA = assay: qPCR of target mRNA in KELLY cells transfected with miRNA mimic; conditions: 25 nM mimic, 96 h after transfection
# Experimental: (§4) KELLY cells were transfected with let-7b-5p, miR-101-3p, and miR-202-3p mimics and real-time PCR performed to determine any changes in mRNA expression levels of HAND1, RGS16, RBFOX2, and ACVR2B. Briefly, KELLY cells were grown in 10% FCS/RPMI and transfected with 25 nM of let-7b-5p, miR-101-3p or miR-202-3p mimic using Dharmafect 1 (DF1) transfection reagent. 96 h after transfection, the cells were harvested and total RNA was extracted using miRneasy kit (Qiagen). RNA was then subjected to reverse transcription to generate cDNA. Quantification of gene expression was then performed using qPCR and Taqman probes and primers for HAND1, RGS 16, RBFOX2, and ACVR2B. The levels of gene expression for HAND1, RGS16, RBFOX2, and ACVR2B were normalised to the housekeeping genes B2M and GAPDH
# RGS16 mRNA = assay: as above; conditions: 25 nM mimic, 96 h after transfection
# Experimental: as §4
# SHEP cells [5] = assay: Primary functional miRNA mimic screen, CellTiter-Glo cell viability; conditions: miRNA mimic 25 nM alone, 144 hours post-transfection
# Excerpt: Breast cancer cell lines (MDA-MB-231, MDA-MB-468, SK-BR-3; BT474) and prostate cancer cell lines (PC3, DU145) were obtained from American Type Culture Collection (ATCC). Neuroblastoma cell lines (KELLY, SHEP) were received from Children's Cancer Institute (CCIA). The KELLY cells were selected as a MYCN amplified neuroblastoma cell line and the SHEP cells were selected as a MYCN wild-type neuroblastoma cell line.
# All breast and prostate cancer cell lines were cultivated in RPMI media supplemented with 10% FCS, HEPES, and insulin. The neuroblastoma cell lines, KELLY, SHEP, were grown in 10% FCS/RPMI and 10% FCS/DMEM, respectively.
# as §1
# Raw viability was normalised to a nontargeting control (OTP) or mock wells, and death genes or controls inducing varying levels of death were used to monitor transfection efficiency and to define dynamic range in each screen (FIG. 1). To define screen hits, normalised viability scores were binned in the following manner: CV1 bin included candidates with viability >=0.8; CV2 bin included candidates with viability <0.8 and >0.5, and LC bin was assigned to candidates with normalised viability <=0.5. Only LC candidates were defined as screen hits.
substance,measurement,setting,value
hsa-miR-101-3p (UACAGUACUGUGAUAACUGAA; chemistry not given here; listed as Homo sapiens),Primary screen Viability (% of control) KELLY,KELLY cells [1],6 % of control
same,Additional cell line Viability (% of control) SKNDZ,[2],72 % of control
same,Secondary screen Viability (% of control) SHEP,SHEP cells [3],69 % of control
same,Secondary screen Viability (% of control) KELLY,KELLY cells [4],7 % of control
same,RBFOX2 mRNA levels,RBFOX2 mRNA,did not affect
same,RGS16 mRNA levels,RGS16 mRNA,did not affect
same,Primary screen Viability (% of control) SHEP,SHEP cells [5],58 % of control
